Source: PubChem BioAssay (NCI)
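Growth conditions: 96-well plates. Treatment: test compound, 48 hours, 5 concentrations. Analysis: linear interpolation between bracketing concentrations; unreached endpoints set to highest concentration. GI50 = concentration required for 50% inhibition of growth. TGI denotes the concentration required for complete inhibition of growth.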

What was measured:
Assay in all cases: NCI anticancer screen, dose series, 48 h
NCI-H226 lung = system: NCI-H226 lung
SF-295 CNS = system: SF-295 CNS
UO-31 renal = system: UO-31 renal
TK-10 renal = system: TK-10 renal
SK-MEL-28 melanoma = system: SK-MEL-28 melanoma
SNB-19 CNS = system: SNB-19 CNS
MOLT-4 leukemia = system: MOLT-4 leukemia
COLO 205 colon = system: COLO 205 colon
BT-549 breast = system: BT-549 breast

Row | SMILES | TGI (NCI-H226 lung) [µM] | TGI (SF-295 CNS) [µM] | TGI (UO-31 renal) [µM] | TGI (TK-10 renal) [µM] | TGI (SK-MEL-28 melanoma) [µM] | TGI (SNB-19 CNS) [µM] | TGI (MOLT-4 leukemia) [µM] | TGI (COLO 205 colon) [µM] | TGI (BT-549 breast) [µM] | GI50 (NCI-H226 lung) [µM] | GI50 (SF-295 CNS) [µM] | GI50 (UO-31 renal) [µM] | GI50 (TK-10 renal) [µM] | GI50 (SK-MEL-28 melanoma) [µM] | GI50 (BT-549 breast) [µM] | GI50 (MOLT-4 leukemia) [µM] | GI50 (SNB-19 CNS) [µM]
1 | NCCN1CCCCCc2ccccc21 | > 10 | > 10 | > 10 | > 10 | > 10 | > 10 | > 10 | > 10 | – | – | – | – | – | – | – | – | –
2 | CCCCI(O)OS(=O)(=O)c1ccc(C)cc1 | > 100 | > 100 | 55.4 | > 100 | > 100 | > 100 | > 100 | > 100 | > 100 | – | – | – | – | – | – | – | –
3 | COc1ccc2nc(NC(=O)/C(C#N)=C/c3ccccc3)sc2c1 | > 100 | > 100 | > 100 | 88 | > 100 | > 100 | > 100 | > 100 | > 100 | – | – | – | – | – | – | – | –
4 | CC(C)NC(=O)OCc1c(COC(=O)NC(C)C)n(C)c2c1ccc1sccc12 | > 30.1 | > 87.7 | 68.7 | 75.6 | 57.3 | > 100 | > 86.1 | 37.9 | 10.7 | – | – | – | – | – | – | – | –
5 | CN(/N=C1\C(=O)Nc2ccccc21)c1ccccc1 | > 100 | > 100 | > 100 | > 100 | > 100 | > 100 | > 100 | – | – | – | – | – | – | – | – | – | –
6 | c1ccc(C2=NC3OC2c2ccccc23)cc1 (centres undefined) | > 10 | > 10 | – | > 10 | > 10 | > 10 | > 10 | > 10 | > 10 | – | – | – | – | – | – | – | –
7 | [N-]=[N+]=CC(=O)C1CCCN1C(=O)c1ccccc1 (centres undefined) | > 10 | > 10 | > 10 | > 10 | > 10 | > 10 | > 10 | > 10 | > 10 | – | – | – | – | – | – | – | –
8 | Cc1c(C)n(-c2ccccc2)c2nc(S(C)=O)nc(S(C)=O)c12 (centres undefined) | 36.2 | 32.2 | 20.2 | 7.36 | 14.9 | 31.3 | 5.57 | 3.41 | 4.13 | – | – | – | – | – | – | – | –
9 | Cc1ccc2c(c1C)C(=O)C1(Cc3cc4c(cc3C1=O)CCC4)C2 (centres undefined) | > 100 | > 100 | > 100 | > 100 | > 100 | > 100 | > 100 | > 100 | > 100 | – | – | – | – | – | – | – | –
10 | OCc1cn(Cc2ccccc2)c2ccccc12 | 0.123 | > 100 | > 100 | – | > 100 | > 100 | > 100 | 13.6 | 23.1 | – | – | – | – | – | – | – | –
11 | O=c1[nH]c(NCc2ccncc2)nc2nc[nH]c12 | > 100 | > 100 | > 100 | > 100 | – | > 100 | > 100 | > 100 | > 100 | – | – | – | – | – | – | – | –
12 | COCOc1ccc(C(=O)Oc2cccc3c2OC(C)(C)O3)c(OCOC)c1 | > 100 | > 100 | > 100 | > 100 | > 100 | – | > 100 | > 100 | – | – | – | – | – | – | – | – | –
13 | CC1(C)CC(=O)C2=C(C1)C(c1ccccc1Cl)C1C(=O)CC(C)(C)CC1(O)O2 (centres undefined) | > 100 | > 31.6 | > 100 | > 100 | > 100 | > 100 | > 100 | > 31.6 | > 100 | – | – | – | – | – | – | – | –
14 | Cc1ccccc1-c1nc2c(N)nc(N)nc2nc1N | – | > 100 | > 100 | > 100 | > 100 | > 100 | > 100 | > 100 | > 100 | – | – | – | – | – | – | – | –
15 | CN(C)CCN(c1ccccn1)c1ccccn1 | > 100 | > 100 | > 100 | > 100 | > 100 | > 100 | > 100 | > 100 | > 100 | – | – | – | – | – | – | – | –
16 | O=C(c1ccco1)N(C(=O)N1CCCCC1)c1ccccc1 | > 100 | – | > 100 | > 100 | > 100 | > 100 | > 100 | > 100 | > 100 | – | – | – | – | – | – | – | –
17 | Cc1nnc2n(c1=O)CCCN2C | > 100 | > 100 | > 100 | > 100 | > 100 | > 100 | > 100 | > 100 | > 100 | – | – | – | – | – | – | – | –
18 | c1ccc2c(c1)SCCCS2 | – | > 100 | > 100 | > 100 | > 100 | > 100 | > 100 | > 100 | > 100 | – | – | – | – | – | – | – | –
19 | C[C@@H]1CC[C@@]2(C)C(C(=O)O)=CCCC2[C@@]1(C)CC(=O)c1ccoc1 (some centres undefined) | > 25 | > 25 | > 25 | > 25 | > 25 | > 25 | > 25 | > 25 | > 25 | – | – | – | – | – | – | – | –

Row | SMILES | TGI (NCI-H226 lung) [µM] | TGI (SF-295 CNS) [µM] | TGI (UO-31 renal) [µM] | TGI (TK-10 renal) [µM] | TGI (SK-MEL-28 melanoma) [µM] | TGI (SNB-19 CNS) [µM] | TGI (MOLT-4 leukemia) [µM] | TGI (COLO 205 colon) [µM] | TGI (BT-549 breast) [µM] | GI50 (NCI-H226 lung) [µM] | GI50 (SF-295 CNS) [µM] | GI50 (UO-31 renal) [µM] | GI50 (TK-10 renal) [µM] | GI50 (SK-MEL-28 melanoma) [µM] | GI50 (BT-549 breast) [µM] | GI50 (MOLT-4 leukemia) [µM] | GI50 (SNB-19 CNS) [µM]
20 | CC(C)C(Br)CCC1=CCC(Br)(Br)C1 (centres undefined) | 26.9 | 33.4 | 21.9 | 31.4 | 29 | 32 | > 100 | 29.6 | 34.9 | – | – | – | – | – | – | – | –
21 | CC(=O)O[C@@H](c1nccn1Cc1ccccc1)[C@H]1OC(C)(C)O[C@@H]1[C@H]1COC(C)(C)O1 | > 100 | > 100 | > 100 | > 100 | > 100 | – | > 100 | > 100 | > 100 | – | – | – | – | – | – | – | –
22 | COc1ccc(C)cc1N1C(=O)C2ON(Cc3ccc(CC(N)=O)cc3)C(c3c4ccccc4c(Cl)c4ccccc34)C2C1=O (centres undefined) | – | 69.1 | 48 | 49.5 | > 100 | > 100 | > 100 | – | 74.5 | – | – | – | – | – | – | – | –
23 | O=C1C=CC2(O[C@H](c3ccccc3)[C@@H](c3ccccc3)O2)[C@H](Sc2ccccc2O)C1 | 5.43 | 15.6 | 1.22 | 0.966 | – | 3.74 | – | 1.62 | 1.46 | – | – | – | – | – | – | – | –
24 | Nc1ncnc2c1nnn2C1C=CC(CP(=O)(O)O)C1 (centres undefined) | > 100 | > 100 | > 100 | > 100 | > 100 | > 100 | > 100 | > 100 | – | – | – | – | – | – | – | – | –
25 | CCCCCCCCCCCCCCCCCCOc1ccccc1CC(=O)NCC[N+]1(C)CCOCC1 | 89 | 49.2 | 37.2 | 5.9 | 49.8 | – | – | – | 74 | 4.9 | 4.99 | 5.83 | 1.9 | 7.69 | 3.57 | – | –
26 | S=C(Cc1ccc2c(c1)Sc1ccccc1O2)N1CCOCC1 | > 100 | > 100 | > 100 | > 100 | > 100 | > 100 | > 100 | > 100 | – | – | – | – | – | – | – | – | –
27 | COc1cccc(C2c3cc4c(cc3OC(O)C2C)OCO4)c1OC (centres undefined) | 24.8 | 17.3 | – | 52 | 39.5 | 74.2 | 18.5 | 19.7 | 65.6 | – | – | – | – | – | – | – | –
28 | COc1ccc(N=Nc2c(-c3c(OC)cc4occc4c3OC)[nH]c(=O)c(C#N)c2C)cc1 | > 100 | > 100 | > 100 | > 100 | > 100 | > 100 | > 100 | > 100 | – | – | – | – | – | – | – | – | –
29 | COc1cc2nc(-c3ccc(Cl)cc3)cc(OCCCN3CCOCC3)c2cc1OC | 4.81 | 2.84 | – | – | – | – | > 100 | – | > 100 | 0.997 | 1.08 | – | – | – | 2.59 | 2.85 | –
30 | Cc1nc2ccc(Cl)cc2c(-n2ccnc2)c1CCn1ccnc1 | 53.2 | > 100 | 74.6 | > 100 | 92.8 | > 100 | – | 41.5 | 69.7 | – | – | – | – | – | – | – | –
31 | CC(=O)c1ccc(Oc2c3ccccc3nc3ccccc23)cc1 | 26.4 | 28.2 | 13.2 | 19.8 | 28.5 | 37.8 | – | 7.55 | 27.1 | – | – | – | – | – | – | – | –
32 | Cn1c2ccccc2n2c3ncccc3c(=O)c(C#N)c12 | 4.65 | 48.4 | 43.1 | > 100 | > 100 | > 62.5 | > 100 | – | 57.3 | – | – | – | – | – | – | – | –
33 | CC(=O)Nc1nc(Cl)cc(NCC2(CO)CCC2)n1 | > 100 | > 100 | > 100 | – | > 100 | > 100 | > 100 | > 100 | > 100 | – | – | – | – | – | – | – | –
34 | c1ccc(-c2c(-c3ccccc3)[n+](Cc3ccc4ccccc4c3)c(-c3ccc(-c4nc5ccccc5s4)cc3)n2Cc2ccc3ccccc3c2)cc1 | – | – | 0.872 | – | 1.57 | 1.26 | 0.759 | – | – | – | – | 0.28 | – | 0.368 | – | 0.139 | 0.0784
35 | O=c1c(F)cn2c(=O)n1CCCCCCCn1c(=O)c(F)cn(c1=O)CCCCCCC2 | > 100 | > 100 | > 100 | > 100 | 22.2 | > 100 | > 100 | > 100 | – | – | – | – | – | – | – | – | –
36 | CCOC(=O)/C=C/c1nc(C#N)c(N)o1 | – | – | > 100 | > 100 | > 100 | > 100 | > 100 | – | – | – | – | – | – | – | – | – | –
37 | Cc1c2cccc-2c2cc(O)c3ccccc3c2n1-c1ccc(N(C)C)cc1 | 24.4 | 22.5 | 24.8 | 32.5 | 35 | 30 | – | 32.6 | 23.3 | – | – | – | – | – | – | – | –
